Literature values in US20090270335A1, “COLLYRIUM FOR DRY EYE” (AQUEOUS PHARMA LIMITED, priority 2006, published 2009).

System: tear secretion
Conditions: topical application
[1] = both in dry eye patients and people not suffering from dry eye

## CC[C@H](C)[C@H](NC(=O)[C@H](Cc1ccccc1)NC(=O)[C@H](C)NC(=O)[C@H](CC(=O)O)NC(=O)[C@H](CCCCN)NC(=O)[C@H](CO)NC(=O)[C@@H]1CCCN1C(=O)[C@@H]1CCC(=O)N1)C(=O)NCC(=O)N[C@@H](CC(C)C)C(=O)N[C@@H](CCSC)C(N)=O [eledoisin, Glu-Pro-Ser-Lys-Asp-Ala-Phe-Ile-Gly-Leu-Met-NH2]
[1]
  tear secretion rate: increase
  tear volume: increase
patients
  side effect: chemosis: not pronounced
  side effect: hyperemia of the conjunctiva: observed initially in some patients
